≈ marks a conversion by molar mass, not a printed value.
Key:
[1] = Aqueous solubility of apixaban; type: physicochemical
[2] = Contact angle of apixaban drug substance with water; type: physicochemical

## COc1ccc(-n2nc(C(N)=O)c3c2C(=O)N(c2ccc(N4CCCCC4=O)cc2)CC3)cc1 [apixaban, 4,5,6,7-tetrahydro-1-(4-methoxyphenyl)-7-oxo-6-[4-(2-oxo-1-piperidinyl)phenyl]-1H-pyrazolo[3,4-c]pyridine-3-carboxamide]
[1]; 10 mg apixaban dose
  dose/solubility ratio: 250 mL
[1]; aqueous medium, at all physiological pH
  solubility: 40 µg/mL (≈ 87.1 µM)
[2]
  contact angle: 54 °

From patent publication US9326945B2, “Apixaban formulations” (Bristol-Myers Squibb Company, priority 2010, dated 2016)
